From patent US20080131500A1, “METHODS AND COMPOSITIONS FOR RAPID INACTIVATION OF PROTEINS” (The Board of Regents of The University of Texas System, priority 2006, published 2008)
Like-named read-outs stand apart in the source and are kept apart here.

Assays:
hirudin [1] = biological target: T1, hirudin (Hirudo medicinalis, UniProt P01050); experiment: Reduction of native hirudin by DTT at pH 9.0, 11.0 and 13.5, HPLC analysis; assay type: biochemical; conditions: for rate constant of hirudin reduction: 50 mM DTT, 22° C.
T1 sequence (P01050 whole entry, looked up): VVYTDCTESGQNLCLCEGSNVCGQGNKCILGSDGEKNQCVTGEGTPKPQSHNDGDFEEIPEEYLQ
Protocol: FIG. 2. […] N-Hirudin (1 mg/ml) was reduced with 50 mM DTT at 22° C. in solutions of pH 9.0, pH 11.0 and pH 13.5. The buffers of pH 9.0 and 11.0 were prepared by the titration of 0.1N NaHC03 and 0.1N NaOH. The samples were quenched at different time points by acidification and analyzed by HPLC using the following conditions. Solvent A for HPLC was water containing 0.1% trifluoroacetic acid. Solvent B was acetonitrile/water (9:1, by volume) containing 0.086% trifluoroacetic acid. The gradient was 27% to 36% solvent B linear in 25 min. The flow rate was 0.5 ml/min. The column was Zorbax 300SB C-18 for peptides and proteins, 4.6 mm, 5 pm. Column temperature was 22° C. N indicates native hirudin.
Reduction of protein disulfide bonds by a reducing agent (such as β-mercaptoethanol, dithiothreitol or tris-carboxyethyl-phosphine) is typically performed at pH 8.0-8.5. […] Hirudin (a 3-disulfide protein) is used as an example here. Native hirudin was incubated with 20 mM, 50 mM or 100 mM of DTT at 22° C. in solutions of pH 9.0, 11.0 and 13.5 respectively. […] Thus, increase of pH from 9.0 to 13.5 accelerates the rate of reduction of hirudin at room temperature by approximately 30-fold. Similar effect of pH was also observed at DTT concentrations of 20 mM and 100 mM.

hirudin [2] = biological target: T1, hirudin; experiment: Reduction of native hirudin in 1N NaOH, 50 mM DTT with added denaturant (GdnCl or GdnSCN), HPLC analysis; assay type: biochemical
Protocol: FIG. 3. […] N indicates native hirudin.
Denaturant is known to destabilize the conformation of native protein and decrease the covalent stability of disulfide bonds against reduction. In addition to the optimized pH (13.5) for hirudin reduction described above, denaturant (GdnCl and GdnSCN) was included to further accelerate the rate of reduction. Native hirudin (N) was incubated at 22° C. in solutions comprising 1N NaOH, 50 mM DTT and increasing concentrations of GdnCl (0.2M-2M) or GdnSCN (0.1M-I M). […] In the presence of 1M of GdnSCN, the reduction of hirudin completes within one minute.

[3] = cited from earlier work

**Q.** With O[C@H](CS)[C@H](O)CS (racemic) [DTT, dithiothreitol] as the compound, how does the “rate constant of hirudin reduction” value (hirudin [1]; pH 9.0) read?
**A.** 0.00377 min⁻¹

**Q.** And the “rate constant of hirudin reduction” value (hirudin [1]; pH 11.0)?
**A.** 0.0235 min⁻¹

**Q.** And the “acceleration of the rate of reduction of hirudin” value (hirudin [1]; increase of pH from 9.0 to 13.5, room temperature)?
**A.** approximately 30 fold

**Q.** For Cl.N=C(N)N [GdnCl, guanidinium chloride], which “potency of 6M GdnCl relative to 1M GdnSCN” value (hirudin [2]; 6M GdnCl versus 1M GdnSCN) is on record?
**A.** about 3 fold

**Q.** What about the “potency relative to GdnSCN” value (hirudin [2]; acceleration of hirudin reduction in 1N NaOH, 50 mM DTT) of the same compound?
**A.** approximately 50%

**Q.** What does the source list for N#CS.N=C(N)N [GdnSCN, guanidine thiocyanate]?
**A.** time to complete reduction of hirudin (hirudin [2]; 1M GdnSCN in 1N NaOH, 50 mM DTT, 22° C.): one; further acceleration of the reduction of hirudin (hirudin [2]; inclusion of 0.2M GdnSCN in 1N NaOH, 50 mM DTT, 22° C.): 2.5 fold; further acceleration of the reduction of hirudin (hirudin [2]; inclusion of 0.5M GdnSCN in 1N NaOH, 50 mM DTT, 22° C.): 5 fold

**Q.** Which “hirudin in a denatured state” value ([3]; 6 M GdnCl) does the source give for hirudin here?
**A.** 67%

**Q.** What about the “hirudin in a denatured state” value ([3]; 8 M urea) of the same compound?
**A.** 14%
